According to article PMC9928118, “Funneling modulatory peptide design with generative models: Discovery and characterization of disruptors of calcineurin protein-protein interactions” (PLOS Computational Biology, 2023):

B1: rbmRIPOR2_2 (peptide)
peptide: Ac-HVSSSPRITITPTQHR-NH2
notes: cRBM-designed (low temperature sampling); source: synthetic peptide (peptide2 Inc)
B2: rbmRIPOR2 (peptide)
peptide: Ac-ASVSNPEITVTSAETE-NH2
notes: cRBM-designed; source: synthetic peptide (peptide2 Inc)
B3: rbmCAPN11 (peptide)
peptide: Ac-TYWTNPQFRVTLEDPD-NH2
notes: cRBM-designed (low temperature sampling); (Schistosoma mansoni CAPN11), 2 mutations; source: synthetic peptide (peptide2 Inc)
B4: TRESK peptide (peptide)
peptide: Ac-ADEAVPQIIISAEELP-NH2
notes: source: synthetic peptide (peptide2 Inc)
B5: rbmTRESK (peptide)
peptide: Ac-ADEAIPEIVISKPEEP-NH2
notes: as for B1

Legend:
GST-tagged Cn [1] = experiment: PEPperPRINT peptide microarray binding assay with GST-tagged Cn; settings: GST-tagged Cn, mean over the duplicate spots (Location on chip)
Method in brief: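 Qualitative binding: peptides printed on a PEPperPRINT microarray were incubated overnight at 4 °C with 1 mg/ml GST-tagged Cn, then detected with Alexa-Fluor 647 anti-GST antibody. Log fluorescence was baseline-corrected, averaged over duplicate spots, Z-normalized and averaged across five repeats.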

GST-tagged Cn [2] = experiment: as above; settings: max over the duplicate spots (Location on chip)
[3] = molecular target: T1, catalytic domain of Calcineurin (Cn A), residues 2-347 with Y341S, L343A, M347D (UniProt Q08209 2-347, Y341S | L343A | M347D); experiment: fluorescence polarisation; competition: variable concentrations of non-labeled peptide added to 100 nM FITC-labeled PVIVIT peptide and 4 uM Cn A, 96-well plate, triplicate; fitted to a single site inhibition model; settings: both partners purified
T1 construct: Calcineurin catalytic domain (calcineurin A), residues 2-347, with substitutions Y341S, L343A, M347D; Expressed as a cleavable GST fusion; source: E. coli BL21, purified (Glutathione Sepharose 4 Fast Flow, size exclusion on Superdex 75)
T1 sequence (Q08209 2-347 Y341S/L343A/M347D): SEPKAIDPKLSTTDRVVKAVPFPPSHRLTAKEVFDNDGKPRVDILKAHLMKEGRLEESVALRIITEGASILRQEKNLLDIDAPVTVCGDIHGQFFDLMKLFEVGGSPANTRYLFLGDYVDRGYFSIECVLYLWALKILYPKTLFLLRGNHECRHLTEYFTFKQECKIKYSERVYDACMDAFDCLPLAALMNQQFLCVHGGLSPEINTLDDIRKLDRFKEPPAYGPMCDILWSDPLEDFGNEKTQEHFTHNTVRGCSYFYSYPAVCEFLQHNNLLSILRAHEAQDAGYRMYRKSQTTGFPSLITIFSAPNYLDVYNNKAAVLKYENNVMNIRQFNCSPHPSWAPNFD

Row | Molecule | Chip Fluorescence (mean) (GST-tagged Cn [1]) | Chip Fluorescence (max) (GST-tagged Cn [2]) | IC50 [3]
1 | KAYMCPYMQFIEGGRR [SeqSFB3_Ictalurus_punctatus] | 1.763 | 2.501 | –
2 | STSSLPTFSFSSPLSS [SeqRBMlowT_2357] | 0.4296 | 2.106 | –
3 | LSSSNPEITVTPAELD [SeqRBMlowT_6234] | -0.4808 | 1.968 | –
4 | KADYTISLILHYDAIE [Seqshuffled_9660] | 0.7325 | 1.911 | –
5 | TFWTNPQFVVSLPEED [SeqRBMlowT_8537] | -0.2871 | 2.16 | –
6 | RQPGSPVLELSGHSAN [SeqRBMlowT_5862] | 0.5615 | 2.053 | –
7 | TFWTNPQFRVHLEDED [SeqRBMlowT_4265] | 1.067 | 1.93 | –
8 | HSKLIPKLSIQSPVEH [SeqRBMlowT_3447] | 0.373 | 2.177 | –
9 | TFWTNPQYVITLPEED [SeqRBMlowT_4660] | 0.3942 | 1.913 | –
10 | LLDNVPAVHVHDMGGH [SeqRBM_9035] | 0.6608 | 1.904 | –
11 | TFWTNPQYKITLEDPD [SeqRBMlowT_219] | 1.018 | 2.355 | –
12 | PSLYENALGMESFTIS [SeqRBMlowT_2807] | -0.3855 | 2.474 | –
13 | PNGSNPETVIKPDWTE [SeqRBM_275] | 0.6822 | 1.983 | –
14 | ASSANPEITVTPAELP [SeqRBMlowT_4424] | 0.4111 | 2.528 | –
15 | TFWTNPQFRIKLEEPD [SeqRBMlowT_8] | -0.1106 | 2.218 | –
16 | GNKEFSPLNVEGLSGN [Seqshuffled_9463] | 0.833 | 2.018 | –
17 | TFMMNPQYRLYKSVSP [SeqRBM_6553] | 0.3935 | 2.027 | –
18 | HPYMGPKIQFHSGGRK [SeqRBM_457] | 0.3342 | 2.294 | –
19 | RTYINPFMLFEDMGSR [SeqRBM_7588] | 0.1039 | 2.523 | –
20 | GSLLIPHCDMSAGGSY [SeqRBM_2528] | -0.05077 | 2.002 | –
21 | GTDLRQQTAAQPNDGA [Seqshuffled_4362] | 0.6141 | 2.523 | –

Row | Molecule | Chip Fluorescence (mean) (GST-tagged Cn [1]) | Chip Fluorescence (max) (GST-tagged Cn [2]) | IC50 [3]
22 | KKMSPPCISVHPPDED [SeqRBMlowT_7695] | 0.511 | 2.045 | –
23 | PMKTRGLYGWPPCAKW [Seqrandom_5226] | 0.996 | 2.284 | –
24 | SSMAQPAINIDFAPTN [SeqRBMlowT_2450] | -0.1624 | 2.328 | –
25 | TFWTNPQYRITLEDPD [SeqRBMlowT_604] | -0.2036 | 2.534 | –
26 | TFWTNPQFRITLEEPD [SeqRBMlowT_11] | 0.7438 | 2.387 | –
27 | HIIIVWAVSEVKYVQL [Seqrandom_9992] | 0.6897 | 1.914 | –
28 | KAYMCPFMQFIDGGRR [SeqRBMlowT_502] | -0.1535 | 2.385 | –
29 | ADEAVPLIDIAMAEYP [SeqRBM_3950] | 0.7456 | 2.42 | –
30 | RTYINPFMQFTYDGRR [SeqRBMlowT_4071] | 1.243 | 1.896 | –
31 | TFWTNPQYRIKLEEVD [SeqRBMlowT_627] | -1.639 | 1.99 | –
32 | TFWSNPQYRITLEDPD [SeqRBMlowT_78] | 0.4904 | 2.0958 | –
33 | TFWTNPQFKVSLEEPD [SeqRBMlowT_97] | 0.2931 | 2.43 | –
34 | GGPGTPSRQGQTAAPS [SeqRBM_5534] | -0.2851 | 2.523 | –
35 | SSSAAPEIVVSKPEHN [SeqRBMlowT_9785] | -0.01901 | 2.217 | –
36 | RFYINPFVQFSDGGNN [SeqRBM_1053] | -0.5027 | 2.558 | –
37 | TFWTNPQYRLKLEEPD [SeqRBMlowT_264] | 0.9748 | 2.584 | –
38 | YCQWSNRATQIGHKPT [Seqrandom_9979] | -0.2818 | 2.027 | –
39 | RAYMNPSVCFTDGGAR [SeqRBM_6787] | 0.3113 | 1.921 | –
40 | KAYMCPYGSFTYGGRR [SeqRBM_3412] | 0.9697 | 2.568 | –
41 | TFWANPQITITLAELD [SeqRBMlowT_7358] | 0.7622 | 2.261 | –
42 | QWSLGVGIVITVTETM [SeqRBM_1755] | 0.7956 | 2.2853 | –

Row | Molecule | Chip Fluorescence (mean) (GST-tagged Cn [1]) | Chip Fluorescence (max) (GST-tagged Cn [2]) | IC50 [3]
43 | TFWSNPQFRLKLEDPD [SeqRBMlowT_6883] | 1.226 | 2.274 | –
44 | TFWMNPQYRITLEEPD [SeqRBMlowT_2265] | 0.1767 | 2.207 | –
45 | RNPGTFLLTLRGHKKQ [SeqRBMlowT_5813] | 1.08 | 2.447 | –
46 | GGPSTPGRQNNPLAPS [SeqRTS1_Zymoseptoria_tritici] | -0.03327 | 2.314 | –
47 | ASEANPEITVTPAELP [SeqRBMlowT_1250] | -0.04845 | 2.513 | –
48 | KAYMCPYMQFIAGGRK [SeqRBM_8989] | 0.7869 | 1.932 | –
49 | LSLYVNALGMESFTIS [SeqRBM_9141] | 0.3343 | 2.172 | –
50 | PSIYQEVLGIGNFSLS [SeqRBMlowT_4899] | 0.7614 | 2.16 | –
51 | TFNNNPQATVRRTDID [SeqRBM_1961] | 0.6511 | 1.877 | –
52 | TFFINPQFKASLTEMD [SeqRBM_564] | 0.5882 | 2.053 | –
53 | GNDDCPEVVVHPPEED [SeqRBMlowT_7697] | 0.9366 | 2.095 | –
54 | HCRFEWPFGFSMIRYP [Seqrandom_9994] | -1.666 | 2.458 | –
55 | YRQAVRFEMPLTACAP [Seqrandom_9969] | 0.771 | 2.355 | –
56 | TFWTNPQFRIKLEDED [SeqRBMlowT_645] | 1.091 | 2.265 | –
57 | RAYKNPFMQFDLDSSL [SeqRBM_8076] | 1.346 | 2.512 | –
58 | RQPGQALLELRGHSAS [SeqRBMlowT_7735] | 0.19 | 2.013 | –
59 | B1 | – | – | 200 µM
60 | B2 | – | – | 79 µM
61 | B3 | – | – | 257 µM
62 | B4 | – | – | 54 µM
63 | B5 | – | – | 14 µM
